Measured values as given in patent US10294236B2, “Compounds as rearranged during transfection (RET) inhibitors” (GLAXOSMITHKLINE INTELLECTUAL PROPERTY DEVELOPMENT LIMITED, priority 2014, dated 2019).
Counter-ions that a name gives are not always drawn.

biological target: T1, Human RET kinase cytoplasmic domain (Homo sapiens, UniProt P07949); test: RET kinase enzymatic assay; format: biochemical
T1 construct: made in house
T1 sequence (P07949 658-1114): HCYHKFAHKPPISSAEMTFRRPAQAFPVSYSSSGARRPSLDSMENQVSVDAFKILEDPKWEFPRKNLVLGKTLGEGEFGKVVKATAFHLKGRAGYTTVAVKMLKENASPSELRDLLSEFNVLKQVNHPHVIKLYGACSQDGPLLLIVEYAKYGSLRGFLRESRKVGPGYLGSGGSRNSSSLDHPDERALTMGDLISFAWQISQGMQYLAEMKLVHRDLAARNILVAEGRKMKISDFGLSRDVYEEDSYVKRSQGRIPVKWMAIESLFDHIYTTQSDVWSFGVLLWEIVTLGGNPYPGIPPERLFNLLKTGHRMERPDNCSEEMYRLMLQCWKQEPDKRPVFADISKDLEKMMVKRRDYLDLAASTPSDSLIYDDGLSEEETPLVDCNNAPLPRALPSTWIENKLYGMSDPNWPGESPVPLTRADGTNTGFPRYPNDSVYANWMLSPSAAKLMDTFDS
Experimental: GST-RET was purified using glutathione sepharose chromatography. The RET kinase enzymatic assay was performed in a total volume of 10 uL with increasing concentrations of RET kinase inhibitor as a singlet in a 384 well format as follows: RET inhibitor compound plates are prepared by adding 100 nL of RET inhibitor at different concentrations to a 384-well plate. 5 μL/well of a 2× enzyme mix (50 mM HEPES (4-(2-hydroxyethyl)-1-piperazineethanesulfonic acid); 1 mM CHAPS (3-[(3-cholamidopropyl)dimethylammonio]-1-propanesulfonate); 0.1 mg/mL BSA (bovine serum albumin); 1 mM DTT (dithiothreitol); 0.2 nM RET kinase) was added to the 384-well plate and incubated for 30 minutes at 23° C. 5 µL/well of a 2× substrate mix (50 mM HEPES; 1 mM CHAPS; 0.1 mg/mL BSA; 20 μM adenosine triphosphate; 20 mM MgCl2 and 1 μM biotinylated peptide substrate) was added and incubated for 1 hour at 23° C. […] IC50s were fitted using GraphPad Prism to a sigmoidal dose response.

Row | Structure (SMILES) | IC50 [nM]
1 | CCOc1cc(-c2ccc(NC(=O)Nc3ccc(OC4(C)COC4)c(C(F)(F)F)c3)nc2)c[nH]c1=O [Example 27, 1-(5′-Ethoxy-6′-oxo-1′,6′-dihydro-[3,3′-bipyridin]-6-yl)-3-(4-((3-methyloxetan-3-yl)oxy)-3-(trifluoromethyl)phenyl)urea] | < 100
2 | CCOc1cc(=O)[nH]cc1-c1ncc(NC(=O)Nc2cnc(C(C)(C)O)c(C(F)(F)F)c2)c(C)n1 [Example 28, 1-(2-(4-Ethoxy-6-oxo-1,6-dihydropyridin-3-yl)-4-methylpyrimidin-5-yl)-3-(6-(2-hydroxypropan-2-yl)-5-(trifluoromethyl)pyridin-3-yl)urea] | < 100
3 | CCOc1cc(-c2ncc(NC(=O)Nc3cnc(C(C)(C)O)c(C(F)(F)F)c3)c(C)n2)c[nH]c1=O [Example 29, 1-(2-(5-Ethoxy-6-oxo-1,6-dihydropyridin-3-yl)-4-methylpyrimidin-5-yl)-3-(6-(2-hydroxypropan-2-yl)-5-(trifluoromethyl)pyridin-3-yl)urea] | < 100
4 | CCOc1cc(-c2ccc(NC(=O)Nc3ccc(CN4CCN(CC)CC4)c(C(F)(F)F)c3)c(C(F)F)c2)c[nH]c1=O [Example 30, 1-(2-(Difluoromethyl)-4-(5-ethoxy-6-oxo-1,6-dihydropyridin-3-yl)phenyl)-3-(4-((4-ethylpiperazin-1-yl)methyl)-3-(trifluoromethyl)phenyl)urea] | < 100
5 | CCOc1cc(Oc2ccc(NC(=O)Nc3ccc(CN4CCN(CC)CC4)c(C(F)(F)F)c3)cc2)c[nH]c1=O [Example 31, 1-(4-((5-Ethoxy-6-oxo-1,6-dihydropyridin-3-yl)oxy)phenyl)-3-(4-((4-ethylpiperazin-1-yl)methyl)-3-(trifluoromethyl)phenyl)urea] | < 100
6 | CCOc1cc(-c2ncc(NC(=O)Nc3cc(C(F)(F)F)c(CN4CCN(CC)CC4)cc3F)c(C)n2)c[nH]c1=O [Example 32, 1-(2-(5-Ethoxy-6-oxo-1,6-dihydropyridin-3-yl)-4-methylpyrimidin-5-yl)-3-(4-((4-ethylpiperazin-1-yl)methyl)-2-fluoro-5-(trifluoromethyl)phenyl)urea] | < 100
7 | CCOc1cc(-c2nc(C)c(NC(=O)Nc3ccc(CN4CCN(CC)CC4)c(C(F)(F)F)c3)c(C)n2)c[nH]c1=O [Example 33, 1-(2-(5-Ethoxy-6-oxo-1,6-dihydropyridin-3-yl)-4,6-dimethylpyrimidin-5-yl)-3-(4-((4-ethylpiperazin-1-yl)methyl)-3-(trifluoromethyl)phenyl)urea] | < 100
8 | CCOc1nc(=O)[nH]cc1-c1ccc(NC(=O)Nc2ccc(OC3(C)COC3)c(C(F)(F)F)c2)c(F)c1 [Example 34, 1-(4-(4-Ethoxy-2-oxo-1,2-dihydropyrimidin-5-yl)-2-fluorophenyl)-3-(4-((3-methyloxetan-3-yl)oxy)-3-(trifluoromethyl)phenyl)urea] | < 100
9 | CCOc1[nH]c(=O)ccc1-c1ccc(NC(=O)Nc2ccc(OC3(C)COC3)c(C(F)(F)F)c2)c(F)c1 [Example 35, 1-(4-(2-Ethoxy-6-oxo-1,6-dihydropyridin-3-yl)-2-fluorophenyl)-3-(4-((3-methyloxetan-3-yl)oxy)-3-(trifluoromethyl)phenyl)urea] | < 100
10 | CC1(Oc2ccc(NC(=O)Nc3ccc(-c4c[nH]c(=O)c(F)c4)cc3F)cc2C(F)(F)F)COC1 [Example 36, 1-(2-Fluoro-4-(5-fluoro-6-oxo-1,6-dihydropyridin-3-yl)phenyl)-3-(4-((3-methyloxetan-3-yl)oxy)-3-(trifluoromethyl)phenyl)urea] | < 100
11 | CC1(Oc2ccc(NC(=O)Nc3ccc(-c4c[nH]c(=O)cc4F)cc3F)cc2C(F)(F)F)COC1 [Example 37, 1-(2-Fluoro-4-(4-fluoro-6-oxo-1,6-dihydropyridin-3-yl)phenyl)-3-(4-((3-methyloxetan-3-yl)oxy)-3-(trifluoromethyl)phenyl)urea] | < 100
12 | CCOc1cc(=O)[nH]cc1-c1ncc(NC(=O)Nc2cccc(C(F)(F)F)c2)c(C)n1 [Example 38, 1-(2-(4-Ethoxy-6-oxo-1,6-dihydropyridin-3-yl)-4-methylpyrimidin-5-yl)-3-(3-(trifluoromethyl)phenyl)urea] | < 100
13 | Cc1nc(-c2c[nH]c(=O)c3occc23)ncc1NC(=O)Nc1cnc(C(C)(C)O)c(C(F)(F)F)c1 [Example 39, 1-(6-(2-Hydroxypropan-2-yl)-5-(trifluoromethyl)pyridin-3-yl)-3-(4-methyl-2-(7-oxo-6,7-dihydrofuro[2,3-c]pyridin-4-yl)pyrimidin-5-yl)urea] | < 100
14 | Cc1[nH]c(=O)ccc1-c1ccc(NC(=O)Nc2ccc(OC3(C)COC3)c(C(F)(F)F)c2)c(F)c1 [Example 40, 1-(2-Fluoro-4-(2-methyl-6-oxo-1,6-dihydropyridin-3-yl)phenyl)-3-(4-((3-methyloxetan-3-yl)oxy)-3-(trifluoromethyl)phenyl)urea] | < 100
15 | CCOc1cc(-c2cnc(NC(=O)Nc3ccc(CC(C)(C)CO)c(C(F)(F)F)c3)c(C)n2)c[nH]c1=O [Example 41, 1-(5-(5-Ethoxy-6-oxo-1,6-dihydropyridin-3-yl)-3-methylpyrazin-2-yl)-3-(4-(3-hydroxy-2,2-dimethylpropyl)-3-(trifluoromethyl)phenyl)urea] | < 100
16 | CCOc1cc(-c2ncc(NC(=O)Nc3cccc(C(F)(F)F)c3)c(C)n2)c[nH]c1=O [Example 42, 1-(2-(5-Ethoxy-6-oxo-1,6-dihydropyridin-3-yl)-4-methylpyrimidin-5-yl)-3-(3-(trifluoromethyl)phenyl)urea] | < 100
17 | CCOc1cc(-c2ncc(NC(=O)Nc3ccc(C#N)c(C(F)(F)F)c3)c(C)n2)c[nH]c1=O [Example 43, 1-(4-Cyano-3-(trifluoromethyl)phenyl)-3-(2-(5-ethoxy-6-oxo-1,6-dihydropyridin-3-yl)-4-methylpyrimidin-5-yl)urea] | < 100
18 | CCOc1cc(=O)[nH]cc1-c1ncc(NC(=O)Nc2ccc(C#N)c(C(F)(F)F)c2)c(C)n1 [Example 44, 1-(4-Cyano-3-(trifluoromethyl)phenyl)-3-(2-(4-ethoxy-6-oxo-1,6-dihydropyridin-3-yl)-4-methylpyrimidin-5-yl)urea] | < 100
19 | CCOc1cc(-c2ccc(NC(=O)Nc3ccc(CN4CCOCC4)c(C(F)(F)F)c3)c(F)c2)c[nH]c1=O [Example 45, 1-(4-(5-Ethoxy-6-oxo-1,6-dihydropyridin-3-yl)-2-fluorophenyl)-3-(4-(morpholinomethyl)-3-(trifluoromethyl)phenyl)urea] | < 100
20 | CCOc1cc(=O)[nH]cc1-c1ncc(NC(=O)Nc2cc(C(C)(C)C(F)(F)F)on2)c(C)n1 [Example 46, 1-(2-(4-Ethoxy-6-oxo-1,6-dihydropyridin-3-yl)-4-methylpyrimidin-5-yl)-3-(5-(1,1,1-trifluoro-2-methylpropan-2-yl)isoxazol-3-yl)urea] | < 100
21 | CCOc1cc(=O)[nH]cc1-c1ncc(NC(=O)Nc2ccc(CC(C)(C)CO)c(C(F)(F)F)c2)c(C)n1 [Example 47, 1-(2-(4-Ethoxy-6-oxo-1,6-dihydropyridin-3-yl)-4-methylpyrimidin-5-yl)-3-(4-(3-hydroxy-2,2-dimethylpropyl)-3-(trifluoromethyl)phenyl)urea] | < 100
22 | CCOc1cc(-c2ncc(NC(=O)Nc3ccc(CC(C)(C)CO)c(C(F)(F)F)c3)c(C)n2)c[nH]c1=O [Example 48, 1-(2-(5-Ethoxy-6-oxo-1,6-dihydropyridin-3-yl)-4-methylpyrimidin-5-yl)-3-(4-(3-hydroxy-2,2-dimethylpropyl)-3-(trifluoromethyl)phenyl)urea] | < 100
23 | CCOc1cc(Oc2ccc(NC(=O)Nc3ccc(OC4(C)COC4)c(C(F)(F)F)c3)cc2)c[nH]c1=O [Example 49, 1-(4-((5-Ethoxy-6-oxo-1,6-dihydropyridin-3-yl)oxy)phenyl)-3-(4-((3-methyloxetan-3-yl)oxy)-3-(trifluoromethyl)phenyl)urea] | < 100
24 | CCOc1cc(-c2ccc(NC(=O)Nc3ccc(OC4(C)COC4)c(C(F)(F)F)c3)c(C)n2)c[nH]c1=O [Example 50, 1-(5′-Ethoxy-6-methyl-6′-oxo-1′,6′-dihydro-[2,3′-bipyridin]-5-yl)-3-(4-((3-methyloxetan-3-yl)oxy)-3-(trifluoromethyl)phenyl)urea hydrochloride] | < 100
25 | CCOc1cc(=O)[nH]cc1-c1ncc(NC(=O)Nc2ccc(C(C)(C)O)c(C(F)(F)F)c2)c(C)n1 [Example 51, 1-(2-(4-Ethoxy-6-oxo-1,6-dihydropyridin-3-yl)-4-methylpyrimidin-5-yl)-3-(4-(2-hydroxypropan-2-yl)-3-(trifluoromethyl)phenyl)urea] | < 100
26 | CCOc1cc(=O)[nH]cc1-c1ncc(NC(=O)Nc2cc(-n3cnc(C)c3)cc(C(F)(F)F)c2)c(C)n1 [Example 52, 1-(2-(4-Ethoxy-6-oxo-1,6-dihydropyridin-3-yl)-4-methylpyrimidin-5-yl)-3-(3-(4-methyl-1H-imidazol-1-yl)-5-(trifluoromethyl)phenyl)urea] | < 100
